How the values were obtained:
[1] = molecular target: TrpR (tryptophan repressor; TrpR-Wt) (Escherichia coli, UniProt P0A881); assay: isothermal titration calorimetry; format: binding
[2] = molecular target: TrpR (tryptophan repressor; TrpR-Wt) (Escherichia coli, UniProt P0A881, S88Y); assay: isothermal titration calorimetry; format: binding

Row | Kd [1] [µM] | Kd [2] [µM] | SMILES
1 | 40.3 ± 2.35 |  | N[C@@H](Cc1c[nH]c2ccccc12)C(=O)O [TRP, Tryptophan]
2 | 32.7 ± 0.88 | 10.4 ± 1.25 | O=C(O)CCCc1c[nH]c2ccccc12 [IBA, Indole-3-butyric acid]
3 | 33.4 ± 1.16 | 7.49 ± 0.91 | O=C(O)CCc1c[nH]c2ccccc12 [IPA, Indole-3-propionic acid]

Continued, molecule first:

Row | SMILES | Kd [1] [µM] | Kd [2] [µM]
4 | Cc1ccc2[nH]cc(CC(N)C(=O)O)c2c1 (racemic) [5-Met-TRP, 5-Methyl-DL-Tryptophan] | 62.2 ± 15.6 | 
5 | O=C(O)Cc1c[nH]c2ccccc12 [IAA, Indole-3-acetic acid] | 162 ± 14 | 29.3 ± 2.08

Reference: paper doi:10.1101/2020.01.20.912972v1 (biorxiv, 2020)
